Experimental data: ChEMBL document CHEMBL1201862, “PubChem BioAssay data set” (2004)
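Compound exposure: 48 hours, 5 concentrations, 96-well plates. GI50 marks 50% less growth.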 Active and inactive are the calls of the source. Cut-off read from the data, not from the text of the source: active = GI50 up to about 1.1 µM and inactive = higher.

Legend:
Assay in all cases: inhibition of tumour cell growth, NCI panel, 48 h
[1] = tested on: DMS-273
[2] = tested on: M19-MEL
[3] = tested on: HOP-18
[4] = tested on: LXFL 529
[5] = tested on: KM-20L2
[6] = tested on: DMS-114
[7] = tested on: SNB-78
[8] = tested on: RXF 631
[9] = tested on: XF498

| Compound | GI50 [1] | GI50 [2] | GI50 [3] | GI50 [4] | GI50 [5] | GI50 [6] | GI50 [7] | GI50 [8] | GI50 [9] |
| --- | --- | --- | --- | --- | --- | --- | --- | --- | --- |
| O=c1ccc2ccccc2c2ccccc12 | 3.33 µM (inactive) | 3.15 µM (inactive) | 3.52 µM (inactive) | 2.95 µM (inactive) | 1.94 µM (inactive) | 2.41 µM (inactive) | 4.07 µM (inactive) |  |  |
| Nc1nc(N)c(-c2ccccc2)c(C(=O)Nc2ccc(Cl)c(Cl)c2)n1 | > 100 µM (inactive) | > 100 µM (inactive) | > 100 µM (inactive) | > 100 µM (inactive) | > 100 µM (inactive) | > 100 µM (inactive) | > 100 µM (inactive) | > 100 µM (inactive) |  |
| O=C1C(c2ccccc2)=C(c2ccccc2)C(c2ccc(-c3ccc(C4=C(c5ccccc5)C(=O)C(c5ccccc5)=C4c4ccccc4)cc3)cc2)=C1c1ccccc1 | > 100 µM (inactive) | > 100 µM (inactive) | > 100 µM (inactive) | > 100 µM (inactive) | > 100 µM (inactive) | > 100 µM (inactive) |  | > 100 µM (inactive) | > 100 µM (inactive) |
| Cc1ccc2c(c1)CN1c3ccc(C)cc3CN2C1c1ccccc1O | 13.5 µM (inactive) | 41.1 µM (inactive) |  | 48.8 µM (inactive) |  | 16.8 µM (inactive) | 67.1 µM (inactive) |  |  |
| O=C1CC2CC=C[C@H]3c4cc5c(cc4C(=O)N1C23)OCO5 (some centres undefined) | > 50 µM (inactive) | > 50 µM (inactive) |  | > 50 µM (inactive) | > 50 µM (inactive) | > 50 µM (inactive) | > 50 µM (inactive) |  |  |
| CN1CCOC(c2ccccc2)O1 (centres undefined) | > 100 µM (inactive) | > 100 µM (inactive) | > 100 µM (inactive) | > 100 µM (inactive) | > 100 µM (inactive) | > 100 µM (inactive) | > 100 µM (inactive) | > 100 µM (inactive) |  |
| O=C(Nc1ccccc1-c1n[nH]c(S)nc1=O)C(F)(F)F | > 100 µM (inactive) | > 100 µM (inactive) |  | > 100 µM (inactive) |  | > 100 µM (inactive) | > 100 µM (inactive) |  | > 100 µM (inactive) |
| CC1OC(CC(=O)O)Cc2c(O)c3c(c(O)c21)C(=O)C=C(C1=CC(=O)c2c(O)c4c(c(O)c2C1=O)CC(CC(=O)O)OC4C)C3=O (centres undefined) | 20.4 µM (inactive) | 20.1 µM (inactive) | 22 µM (inactive) | 8.81 µM (inactive) | 22.2 µM (inactive) | 15 µM (inactive) | 25.8 µM (inactive) |  | 17.5 µM (inactive) |
| Cc1ccc(NC(=O)SCCC(=O)O)cc1 | > 100 µM (inactive) |  |  | > 100 µM (inactive) | > 100 µM (inactive) | > 100 µM (inactive) | > 100 µM (inactive) | > 100 µM (inactive) |  |
| COC[C@@H]1[C@H]2OC(C)(C)O[C@H]2C(=O)N1C(=O)c1ccc(OC)cc1 | > 100 µM (inactive) | > 100 µM (inactive) | > 100 µM (inactive) | > 100 µM (inactive) | > 100 µM (inactive) | > 100 µM (inactive) | > 100 µM (inactive) |  | > 100 µM (inactive) |
| COc1cc(Br)c(CC2NCCc3cc(OC)c(OC)cc32)cc1OC (centres undefined) |  | 95.7 µM (inactive) |  | 36.7 µM (inactive) | 41.2 µM (inactive) |  | > 100 µM (inactive) |  | 11.7 µM (inactive) |
| COC(=O)/C(C)=C/[N+](=O)[O-] | 17.8 µM (inactive) | 17.4 µM (inactive) | 18 µM (inactive) | 14 µM (inactive) | 25 µM (inactive) | 18.2 µM (inactive) | 21.1 µM (inactive) |  | 14.3 µM (inactive) |
| O=c1c2ccccc2nc(-c2cccc(Cl)c2)n1NC1OC(CO)C(O)C(O)C1O (centres undefined) | > 100 µM (inactive) | > 100 µM (inactive) | 50.8 µM (inactive) | > 100 µM (inactive) | > 100 µM (inactive) | > 100 µM (inactive) | > 100 µM (inactive) | > 100 µM (inactive) | > 100 µM (inactive) |
| O=c1[nH]c(=O)n(C2CC(O)C(CO)O2)cc1C#Cc1ccc(C(F)(F)F)cc1 (centres undefined) | > 100 µM (inactive) |  | > 100 µM (inactive) | > 100 µM (inactive) | > 100 µM (inactive) | > 100 µM (inactive) |  | > 100 µM (inactive) | > 100 µM (inactive) |
| COc1ccccc1NS(=O)(=O)c1cc(C(C)(C)C)ccc1OCCOc1ccc(C(C)(C)C)cc1S(=O)(=O)Nc1ccccc1OC | > 100 µM (inactive) | > 100 µM (inactive) | > 100 µM (inactive) |  |  | > 100 µM (inactive) | > 100 µM (inactive) |  |  |
| COc1ccc2c(c1)C=C([N+](=O)[O-])C(C1OC(C)(C)OC1C1COC(C)(C)O1)O2 (centres undefined) | 2.9 µM (inactive) | 1.63 µM (inactive) | 24.7 µM (inactive) | 3.81 µM (inactive) | 5.08 µM (inactive) | 2.88 µM (inactive) | 2.79 µM (inactive) |  | 11 µM (inactive) |
| O=C(Nc1ccn(CCOC(=O)c2ccccc2)c(=O)n1)c1ccccc1 | > 100 µM (inactive) | > 100 µM (inactive) | > 100 µM (inactive) | > 100 µM (inactive) | > 100 µM (inactive) | > 100 µM (inactive) | > 100 µM (inactive) |  |  |
| CN(C)CCN(C)CC1COC(C)(C)O1 (centres undefined) | > 100 µM (inactive) | > 100 µM (inactive) | > 100 µM (inactive) | > 100 µM (inactive) | > 100 µM (inactive) |  | > 100 µM (inactive) |  | > 100 µM (inactive) |
| O=C1c2ccccc2C(=O)c2sc(Nc3ccccc3Cl)nc21 | 13.5 µM (inactive) | 1.62 µM (inactive) | 13.4 µM (inactive) | 2.27 µM (inactive) | 20.7 µM (inactive) |  | 13.9 µM (inactive) | 18 µM (inactive) | 16 µM (inactive) |
| CC1CN1C(=O)NCCCCCCNC(=O)N1CC1C (centres undefined) | 25.6 µM (inactive) | > 100 µM (inactive) | > 100 µM (inactive) | > 100 µM (inactive) | > 100 µM (inactive) | > 36.2 µM (inactive) |  |  | > 100 µM (inactive) |
| Cc1cccc(NC(=O)C(=O)Cc2nc3ccccc3nc2O)c1C |  | > 100 µM (inactive) | > 100 µM (inactive) | > 100 µM (inactive) | > 100 µM (inactive) | > 100 µM (inactive) | > 100 µM (inactive) |  | > 100 µM (inactive) |
| C[C@]12CCC(=O)C=C1CC[C@@H]1C2CC[C@]2(C)Nc3[nH]ncc3CC12 (some centres undefined) | > 100 µM (inactive) | > 100 µM (inactive) |  | > 100 µM (inactive) | > 100 µM (inactive) | > 100 µM (inactive) | > 100 µM (inactive) |  | > 100 µM (inactive) |
| CN(C)CCNc1ccc(CO)c2sc3ccc(O)cc3c(=O)c12 | 0.615 µM (active) | 3.08 µM (inactive) | 12.9 µM (inactive) | 4.88 µM (inactive) | 6.41 µM (inactive) | 0.681 µM (active) | 14.4 µM (inactive) |  | 4.92 µM (inactive) |
| O=C(N/N=C/c1cc(Cl)cc(Cl)c1O)c1ccncc1 |  |  |  |  | 37.3 µM (inactive) |  |  |  |  |
